Assay results taken from patent US9914735B2, “Heteroaryl Syk inhibitors” (Boehringer Ingelheim International GmbH, priority 2014, dated 2018).
Like-named read-outs stand apart in the source and are kept apart here.

Columns and labels:
[1] = target: Recombinant human Aurora B (amino acids 1-344) (Homo sapiens (Human), UniProt Q96GD4); test: Aurora B kinase test (ADP Glo luminescence); format: biochemical
Experimental: The activity of the Aurora B kinase protein was determined using the ADP Glo® Luminescence Kinase test (Promega; V9103X).
Serial Dilution is done in 1:10 steps in 100% DMSO.
Then 20 μl Kinase detection mix (Detection Buffer #V913B Promega; Kinase Detection Substrate #V914B Promega) were added and incubated for 40 minutes at room temperature.
(§1) The output file of the reader is a csv file that contains the well number and measured RLU. For data evaluation and calculation, the measurement of the negative control was set as 0% ctrl and the measurement of the positive control was set as 100% ctrl. Based on this values the % value for the measurement of each substance concentration was calculated using an Assay Explorer software (Accelrys). Normally, the % ctrl values calculated are between 0% and 100% values but may also occur outside these limits in individual cases based on variability or compound characteristics. The IC50 values were calculated from the % ctrl values using Assay Explorer software. Calculation: [y=(a−d)/(1+(x/c)^b)+d], a=low value, d=high value; x=conc M; c=IC50 M; b=hill; y=% ctrl.

FLT3 = FLT3 (Homo sapiens (Human), UniProt P36888); test: FLT3 kinase test (Z'-LYTE); format: biochemical
Sequence of FLT3 (P36888 27-993): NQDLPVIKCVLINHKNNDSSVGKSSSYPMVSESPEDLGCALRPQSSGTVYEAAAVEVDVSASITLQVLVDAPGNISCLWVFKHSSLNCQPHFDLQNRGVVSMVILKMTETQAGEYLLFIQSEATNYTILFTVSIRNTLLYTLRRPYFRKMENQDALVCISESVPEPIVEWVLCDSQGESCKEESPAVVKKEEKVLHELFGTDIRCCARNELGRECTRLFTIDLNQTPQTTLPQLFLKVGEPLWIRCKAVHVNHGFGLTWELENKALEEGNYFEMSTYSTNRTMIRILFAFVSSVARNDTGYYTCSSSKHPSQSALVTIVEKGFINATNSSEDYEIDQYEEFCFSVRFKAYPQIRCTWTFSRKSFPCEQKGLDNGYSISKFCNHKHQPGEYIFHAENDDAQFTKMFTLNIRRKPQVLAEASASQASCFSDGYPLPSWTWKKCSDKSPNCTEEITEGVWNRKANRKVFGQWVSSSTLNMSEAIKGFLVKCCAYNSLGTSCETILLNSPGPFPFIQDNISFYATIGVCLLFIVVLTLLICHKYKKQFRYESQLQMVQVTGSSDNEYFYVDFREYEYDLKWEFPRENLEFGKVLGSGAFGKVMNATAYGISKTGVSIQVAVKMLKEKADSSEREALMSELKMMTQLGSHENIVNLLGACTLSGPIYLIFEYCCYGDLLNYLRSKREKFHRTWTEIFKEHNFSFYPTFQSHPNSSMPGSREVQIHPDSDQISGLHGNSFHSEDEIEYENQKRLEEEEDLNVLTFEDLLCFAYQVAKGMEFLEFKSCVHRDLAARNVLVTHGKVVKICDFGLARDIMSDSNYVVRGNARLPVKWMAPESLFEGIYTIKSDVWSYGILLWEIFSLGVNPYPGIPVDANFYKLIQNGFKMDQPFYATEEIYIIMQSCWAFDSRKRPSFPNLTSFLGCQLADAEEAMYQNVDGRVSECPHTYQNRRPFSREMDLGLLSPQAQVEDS
Experimental: The activity of FLT3 is measured using the Z′-LYTETM assay technology from Invitrogen (#PV3191)
The reaction is started by addition of 2.5 μl of the 4×ATP solution.
Positive controls are reaction mixtures containing no test compound; negative controls (blanks) are reaction mixtures containing no kinase. As a further control, the phosphopeptide solution is added to wells without kinase (=100% phosphorylation control).
The reaction is performed for 1 h at room temperature before 5 μl of the development solution is added. After a further incubation for 1 h at room temperature 5 μl of the stop reagent is added.
The output text file is evaluated in an “MS-Excel—VB-Makro” and “GraphPadPrism” (Version 5) (GraphPad Software Inc.) is used to calculate the results. Data for the inhibition of FLT3 are reported in M. data for the inhibition of the protease are reported in % CTL.

Human GSK3beta = Human GSK3beta (Homo sapiens (Human), UniProt P49841); test: GSK 3beta kinase test (Z'-LYTE); format: biochemical; details: read-out: IC50 in μM (GSK3beta-Inhibition)
Sequence of Human GSK3beta (P49841 whole entry): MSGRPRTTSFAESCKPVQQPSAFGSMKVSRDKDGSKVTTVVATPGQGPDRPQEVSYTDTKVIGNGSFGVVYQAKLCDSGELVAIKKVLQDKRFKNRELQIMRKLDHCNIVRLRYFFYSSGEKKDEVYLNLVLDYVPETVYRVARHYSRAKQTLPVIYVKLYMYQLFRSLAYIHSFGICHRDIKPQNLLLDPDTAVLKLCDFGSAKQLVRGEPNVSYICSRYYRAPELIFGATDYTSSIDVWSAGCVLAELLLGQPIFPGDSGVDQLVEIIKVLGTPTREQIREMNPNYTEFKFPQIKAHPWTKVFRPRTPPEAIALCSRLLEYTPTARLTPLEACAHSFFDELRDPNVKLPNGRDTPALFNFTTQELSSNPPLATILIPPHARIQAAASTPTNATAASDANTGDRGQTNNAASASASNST
Experimental: Human GSK3beta (expressed and prified from SF21 cells) is obtained from the University Dundee/Scotland (Dr. James Hastie—Dept. of Biochemistry) in 50 mM Tris (pH7.5); 150 mM NaCl; 0.1 mM EGTA, 270 mM Succrose, 0.1% β-mercaptoethanol, 1 mM benzamidine, 0.2 mM PMSF; sequence see below). The enzyme is diluted to 3.56 μM (168 μg/ml) in enzyme dilution buffer and 6 μl aliquots are stored at −80° C.
The activity of GSK3 kinase protein is measured using the Z′-LYTETM assay technology from Invitrogen (# PV3324).
The assay is performed in 384 black plates from Corning (#3676) in a final volume of 10 μl by adding 5 μl of kinase peptide mix and 2.5 μl of compound dilution. The reaction is started by addition of 2.5 μl of the 4×ATP solution.
Positive controls are reaction mixtures containing no test compound; negative controls (blanks) are reaction mixtures containing no ATP. As a further control, the phosphopeptide solution is added to wells without kinase and without ATP (=100% phosphorylation control).
The non inhibited kinase reaction will result in a phosphorylation corresponding to 20%-30% of the phosphorylation control.
The reaction is performed 1 h at room temperature. After 1h 5 μl of the development solution is added. After a further incubation for 1 h at room temperature 5 μl of the stop reagent is added. Finally the plates are read on a Flex Station II 384 (Molecular Devices).
The output text file is evaluated in an “MS-Excel—VB-Makro” and “GraphPadPrism” (Version 5) (GraphPad Software Inc.) is used to calculate the results. Data for the inhibition of GSK3beta are reported in M. data for the inhibition of the protease are reported in % CTL.

[2] = Human liver microsomal stability test; format: in vitro ADME; details: for microsomal stability Cl [% Qh]: human liver microsomes, Qh = liver blood flow
Experimental: The metabolic degradation for a specific SYK-inhibitor is performed at 37° C. with pooled human liver microsomes (human liver microsomes are commercially available as “BD UltraPool™” by Corning Life Sciences, Fogostraat 12, 1060 LJ Amsterdam, The Netherlands). The final incubation volume of 100 μl per time point contains TRIS buffer pH 7.6 at RT (0.1 M), magnesium chloride (5 mM), microsomal protein (1 mg/ml) and the test compound at a final concentration of 1 μM.
Following a short preincubation period at 37° C., the reaction is initiated by addition of beta-nicotinamide adenine dinucleotide phosphate in its reduced form (NADPH, 1 mM) and terminated by transfering an aliquot into solvent after different time points. Additionally, the NADPH-independent degradation is monitored in incubations without NADPH, terminated at the last time point.
The quenched (terminated) incubations are then pelleted by centrifugation (10000 g, 5 min).
An aliquot of the supernatant is assayed by LC-MS/MS for the remaining amount of parent compound. The half-life (t1/2 INVITRO) is determined by the slope of the semilogarithmic plot of the concentration-time profile.
The intrinsic clearance (CL_[…]) is calculated by considering the amount of protein in the incubation: CL_[…][μl/min/mg protein]=(Ln 2/(t1/2 INVITRO[min]*protein content[mg/ml]))*1000
The protein content [mg/ml] was determined with the “Bicinchoninic Acid Kit” of Sigma Aldrich (commercially available).
The upscaled intrinsic Clearance (CL_UP_INT) is calculated by considering the liver weight [g liver/kg body weight] and the microsomal recovery [mg protein/g liver]: CL_UP_INT[ml/min/kg]=0.001*CL_[…]*liver weight*microsomal recovery • with microsomal recovery=45 mg protein/g liver • with liver weight=25.7 g liver/kg body weight
The percent hepatic blood flow (% Qh) is finally calculated by considering the human liver blood flow Q [ml/min/kg]: % Qh[%]=((Q*CL_UP_INT)/(Q+CL_UP_INT)/Q)*100 • with liver blood flow (Q)=20.7 ml/min/kg.

[3] = target: Recombinant human Syk (amino acids 342-635), GST-Syk kinase fusion protein (Homo sapiens (Human), UniProt P43405); test: Syk kinase test (Kinase Glo luminescence); format: biochemical; details: read-out: IC50 in μM (SYK-Inhibition)
Experimental: as §1, with “measured relative light units (RLU).” for “measured RLU.”, “as 100%” for “as 0%”, “as 0%” for “as 100%”, “software. Calculation:[y=(a−d)/(1+(x/c)^b)+d]” for “software. Calculation: [y=(a−d)/(1+(x/c)^b)+d],”

[4] = read-out: IC50 in μM (AURB-Inhibition)
[5] = read-out: IC50 in μM (FLT3-Inhibition)

Sequence of Recombinant human Aurora B (amino acids 1-344) (Q96GD4 whole entry, the tested form may be a part): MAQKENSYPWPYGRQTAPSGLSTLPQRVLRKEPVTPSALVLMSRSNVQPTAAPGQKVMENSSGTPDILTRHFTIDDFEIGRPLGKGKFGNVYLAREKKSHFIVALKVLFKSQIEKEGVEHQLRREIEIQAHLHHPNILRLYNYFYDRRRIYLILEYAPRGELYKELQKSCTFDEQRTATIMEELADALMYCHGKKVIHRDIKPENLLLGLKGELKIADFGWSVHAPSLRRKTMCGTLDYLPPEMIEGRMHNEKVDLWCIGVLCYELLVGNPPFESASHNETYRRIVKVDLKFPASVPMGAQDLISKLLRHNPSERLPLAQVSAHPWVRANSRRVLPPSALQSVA

IC50 [1, 4]	IC50 (FLT3; [5])	IC50 (Human GSK3beta)	microsomal stability Cl [% Qh] [2]	IC50 [3]	IC50 ([1]; Table 1, read-out: AURB-inhibition IC50-value)	IC50 (FLT3; Table 1, read-out: FLT3-inhibition IC50-value)	IC50 ([1]; read-out: IC50-values with regard to AURB)	human liver microsomal stability CI [2]	SMILES
5.09 µM	1.53 µM	> 10 µM							C[C@@H](Oc1nc(-c2ccc(OC(F)(F)F)c(F)c2)cc2ncccc12)[C@H]1CNC(=O)C1 [1 of WO 2011/092128]
16.9 µM	7.39 µM	> 10 µM	81 % Qh						COc1cc(-c2cc(O[C@H](C)[C@H]3CNC(=O)C3)c3cccnc3c2)cc(OC)c1OC [2 of WO 2013/014060]
1.85 µM	0.633 µM	> 10 µM	33 % Qh	0.003 µM					COc1cc(-c2cc3ncccc3c(O[C@H](C)[C@H]3CNC(=O)C3)n2)ccc1OC(F)(F)F [4 of WO 2011/092128]
1.03 µM	0.64 µM	> 1 µM	24 % Qh	0.004 µM					C[C@@H](Oc1cc(-c2ccccn2)cc2ncccc12)[C@H]1CNC(=O)C1 [6 of WO 2013/014060]
2.33 µM	0.452 µM	> 10 µM	79 % Qh						COc1cc(-c2cc3ncccc3c(O[C@H](C)[C@H]3CNC(=O)C3)n2)cc(Cl)c1OC [7 of WO 2011/092128]
> 50 µM	> 50 µM	> 10 µM	77 % Qh						COc1cc(-c2cc3ncccc3c(O[C@H](C)[C@H]3CNC(=O)C3)n2)cc(OC)c1Cl [8 of WO 2011/092128]
0.643 µM	0.369 µM	> 10 µM	58 % Qh						COc1ccc(-c2cc(O[C@H](C)[C@H]3CNC(=O)C3)c3cccnc3c2)cc1OC [8 of WO 2013/014060]
0.271 µM	0.312 µM	> 10 µM	57 % Qh						COc1cc(-c2cc(O[C@H](C)[C@H]3CNC(=O)C3)c3cccnc3c2)ccc1OC(C)C [10 of WO 2013/014060]
0.752 µM		> 10 µM	24 % Qh						COc1cc(-c2cc(O[C@H](C)[C@H]3CNC(=O)C3)c3cccnc3c2)ccc1O [11 of WO 2013/014060]
0.293 µM	0.315 µM	> 10 µM	44 % Qh						C[C@@H](Oc1cc(-c2ccc3ncccc3c2)cc2ncccc12)[C@H]1CNC(=O)C1 [29 of WO 2013/014060]
0.308 µM	0.505 µM	> 10 µM	37 % Qh						C[C@@H](Oc1cc(-c2ccc3[nH]cnc3c2)cc2ncccc12)[C@H]1CNC(=O)C1 [41 of WO 2013/014060]
0.63 µM	0.618 µM	> 10 µM	<23 % Qh						C[C@@H](Oc1cc(-c2ccc3cnn(C)c3c2)cc2ncccc12)[C@H]1CNC(=O)C1 [42 of WO 2013/014060]
0.144 µM	0.157 µM		<23 % Qh						C[C@@H](Oc1cc(-c2ccc(CN3CCOCC3)cc2)cc2ncccc12)[C@H]1CNC(=O)C1 [43 of WO 2013/014060]
0.25 µM	0.411 µM	> 10 µM	<23 % Qh						Cc1cn2cc(-c3cc(O[C@H](C)[C@H]4CNC(=O)C4)c4cccnc4c3)ccc2n1 [61 of WO 2013/014060]
0.075 µM	0.169 µM	> 10 µM	<23 % Qh						C[C@@H](Oc1cc(-c2ccc(C(=O)N3CCN(C)CC3)cc2)cc2ncccc12)[C@H]1CNC(=O)C1 [76 of WO 2013/014060]
0.949 µM	0.514 µM	> 10 µM	<23 % Qh						C[C@@H](Oc1cc(-c2ccc3ncn(C)c3c2)cc2ncccc12)[C@H]1CNC(=O)C1 [81 of WO 2013/014060]
1.05 µM	0.14 µM	> 10 µM	<23 % Qh						C[C@@H](Oc1cc(-c2ccc3c(c2)CNCC3)cc2ncccc12)[C@H]1CNC(=O)C1 [101 of WO 2013/014060]
> 50 µM	13.5 µM	> 10 µM	<23 % Qh		> 50 µM	13.5 µM			COc1cc(-c2cc3nn(C)cc3c(O[C@H](C)[C@H]3CNC(=O)C3)n2)ccc1O [Example 8, (4R)-4-[(1R)-1-[6-(4-Hydroxy-3-methoxy-phenyl)-2-methyl-pyrazolo[4,3-c]pyridin-4-yl]oxyethyl]pyrrolidin-2-one]
		> 10 µM	25 % Qh						C[C@@H](Oc1cc(-c2ccc(N3CCOCC3)cc2)cc2nn(C)cc12)[C@H]1CNC(=O)C1 [Example 22, (4R)-4-[(1R)-1-[2-Methyl-6-(4-morpholinophenyl)indazol-4-yl]oxyethyl]-pyrrolidin-2-one]
							> 50 µM	77 % Qh	COc1cc(-c2cc3ncccc3c(O[C@H](C)[C@H]3CNC(=O)C3)n2)cc(OC)c1Cl [example 8 of WO 2011/092128, reference compound]

SMILES	IC50 [1, 4]	IC50 (FLT3; [5])	IC50 (Human GSK3beta)	microsomal stability Cl [% Qh] [2]	IC50 [3]	IC50 ([1]; Table 1, read-out: AURB-inhibition IC50-value)	IC50 (FLT3; Table 1, read-out: FLT3-inhibition IC50-value)	IC50 ([1]; read-out: IC50-values with regard to AURB)	human liver microsomal stability CI [2]
COc1cc(-c2cc3ncccc3c(O[C@H](C)[C@H]3CNC(=O)C3)n2)cc(OC)c1OC [35 of WO 2011/092128]	5.21 µM	1.18 µM	> 10 µM	62 % Qh	0.001 µM				
